# Source: patent US9676820B2, “Method for inhibiting proliferation of high LIX1L-expressing tumor cell, and tumor cell proliferation-inhibiting peptide” (National University Corporation Hamamatsu University School …, priority 2013, dated 2017)
# How the values were obtained:
# Type in all cases: cell-based
# [1] = tested on: K562 strain; experiment: MTT assay, K562 strain; conditions: 72 hours
# Description: (§1) Specifically, first, cells plated in a 96-well microplate such that the density thereof became 5×10^3 cells/well were cultured for one night in a culture solution having the same composition as those in the reference examples. Thereafter, the culture solution was exchanged with 100 μL of a culture solution of which the concentration of peptides is 0 μM to 100 μM for culturing for 72 hours. After the culturing, an MTT-containing PBS solution was added to the culture solution, and the mixture was incubated for 4 hours. Then, formazan which was generated by putting 100 μL of isopropanol (containing 34 (v/v) % of hydrochloric acid) into each of the wells was dissolved. The absorbance of each of the wells of the microplate at 570 nm was measured using a microplate reader. As controls, culturing was performed in the same manner except that no peptide was added to the strains, an MTT assay was performed thereon, and the absorbance at 570 nm was measured (untreated).
# (§2) Specifically, the cells were cultured for 72 hours similarly to Example 2 except that a peptide to be added to a cell strain was set to peptide 1, 3, or 4, or a control peptide, an MTT assay was performed thereon, and the absorbance at 570 nm was measured.
# (§3) In the method for measuring the viable cell counts, cells were cultured for 3 days similarly to Example 1 except that a 25 μM (10 μM for an HL-60 strain, a K562 strain, and a U937 strain) culture solution containing a control peptide or a peptide 1 was used, and the viable cell counts were measured. As a comparison, culturing was performed similarly to the above using a culture solution containing no peptide, and the viable cell counts were measured (untreated).
# (§4) In addition, in the method for performing an MTT assay, cells were cultured for 72 hours similarly to Example 2 except that a peptide to be added to a strain was set to a control peptide or a peptide 1 at 25 μM (10 μM for an HL-60 strain, a K562 strain, and a U937 strain), an MTT assay was performed thereon, and the absorbance at 570 nm was measured. As a comparison, culturing was performed similarly to the above using a culture solution containing no peptide, and the MTT assay was performed thereon (untreated).
# (§5) Specifically, the cells were cultured for 72 hours similarly to Example 2 except that a peptide to be added to a cell was set to a peptide 1, 2, 5, or 6, MTT assays were performed thereon, and the absorbance at 570 nm was measured. As a comparison, culturing was performed similarly to the above using a culture solution containing no peptide, and the MTT assay was performed thereon (untreated).
# as §5, with “that peptides” for “that a peptide”, “to” for “to a”, “cell strains were” for “cell was”, “to peptides 7 to 14,” for “to a peptide 1, 2, 5, or 6,”
# Specifically, the cells were cultured for 72 hours similarly to Example 2 except that a peptide to be added to a cell strain was set to a peptide 15 or 16, an MTT assay was performed thereon, and the absorbance at 570 nm was measured. As a comparison, culturing was performed similarly to the above using a culture solution containing no peptide, and the MTT assay was performed thereon (untreated).
# [2] = tested on: NUGC-4 strain; experiment: MTT assay, NUGC-4 strain; conditions: 72 hours, peptide concentrations up to 250 μM
# Description: as §1, with “Thereafter, the culture solution was exchanged with 100 μL of a culture solution of which the concentration of peptides is 0 μM to 100 μM for culturing for 72 hours.” left out
# as §3, §4, §5
# (§6) Specifically, the cells were cultured for 72 hours similarly to Example 2 except that peptides to be added to cell strains were set to peptides 7 to 14, MTT assays were performed thereon, and the absorbance at 570 nm was measured. […]
# (§7) Specifically, the cells were cultured for 72 hours similarly to Example 2 except that a peptide to be added to a cell strain was set to a peptide 15 or 16, an MTT assay was performed thereon, and the absorbance at 570 nm was measured. […]
# [3] = tested on: MKN45 strain; experiment: MTT assay, MKN45 strain; conditions: 72 hours, peptide concentrations up to 250 μM
# Description: as §1, with “Thereafter, the culture solution was exchanged with 100 μL of a culture solution of which the concentration of peptides is 0 μM to 100 μM for culturing for 72 hours.” left out
# as §3, §4, §5, §6, §7
# [4] = tested on: HL-60 strain; experiment: Viable cell counts (Trypan blue staining), HL-60 strain; conditions: 5 μM peptide, after 72 hours, vs untreated
# Description: (§8) Specifically, cells plated such that the density thereof became 1×10^4 cells/3.5 cm well for one plate (6 wells/plate) for each cell strain were cultured for one night in a culture solution having the same composition as those of the culture solutions described in the reference examples. After culturing of 1 well out of the 6 wells was completed, Trypan blue staining was performed on the 1 well, and viable cell counts were counted. The remaining 5 wells were cultured after exchanging the culture solution with a liquid mixture of a Lipofectamine (registered trademark) reagent (12.5 μL/well) and a culture solution (2 mL/well) of which the shRNA concentration became 2.5 μg/well. Then, Trypan blue staining was performed on 1 well 24 hours after the exchange of a culture medium, 1 well 48 hours after the exchange of a culture medium, and the remaining 1 well 72 hours after the exchange of a culture medium, and the viable cell counts were counted. As a control, the viable cell counts were measured (untreated) by performing the culturing similarly to the above except that a culture medium was exchanged with a culture solution to which no shRNA was added.
# (§9) Specifically, the viable cell counts were measured after culturing the cells similarly to Example 1 except that a 5 μM culture solution containing a control peptide, a peptide 1, or a peptide 2 was used instead of the culture solution (2 mL/well) of which the shRNA concentration was 2.5 μg/well. The viable cell counts were measured (untreated) by performing the culturing similarly to Example 1 using a culture solution containing no peptide 2, as a control.
# [5] = tested on: RPMI8226 strain; experiment: MTT assay, RPMI8226 strain; conditions: peptide 0 μM to 100 μM, 72 hours
# Description: as §1, §2
# [6] = tested on: OCUM-1 strain; experiment: MTT assay, OCUM-1 strain; conditions: peptide 0 μM to 100 μM, 72 hours
# Description: as §1
# [7] = tested on: RPMI8226 strain; experiment: Viable cell counts (Trypan blue staining), RPMI8226 strain; conditions: 5 μM peptide, up to 72 hours, vs untreated
# Description: as §8, with “added. […]” for “added.”
# [8] = tested on: HL-60 strain; experiment: MTT assay, HL-60 strain; conditions: peptide 0 μM to 100 μM, 72 hours
# Description: as §1, §3, §4
# [9] = tested on: KATO-III strain; experiment: MTT assay, KATO-III strain; conditions: peptide 0 μM to 100 μM, 72 hours
# Description: as §1
# [10] = tested on: 293 FLG/LIX1L; experiment: MTT assay, 293 FLG/LIX1L cells; conditions: 72 hours, peptide concentrations up to 250 μM
# Description: as §1, with “Thereafter, the culture solution was exchanged with 100 μL of a culture solution of which the concentration of peptides is 0 μM to 100 μM for culturing for 72 hours.” left out
# as §3, §4, §5, §6, §7
# [11] = tested on: 293 FLG; experiment: MTT assay, 293 FLG cells; conditions: 72 hours, peptide concentrations up to 250 μM
# Description: as §1, with “Thereafter, the culture solution was exchanged with 100 μL of a culture solution of which the concentration of peptides is 0 μM to 100 μM for culturing for 72 hours.” left out
# as §3, §4, §5, §6, §7
# [12] = tested on: K562 strain; experiment: Viable cell counts (Trypan blue staining), K562 strain; conditions: 5 μM peptide, after 72 hours, vs untreated
# Description: as §8, §9
substance,measurement,setting,value
YGRKKRRQRRR-X-CYVTLPGGSC-NH2 (YGRKKRRQRRRXCYVTLPGGSC; ε-aminocaproic acid linker; C-terminal amide; peptide 2),"cell proliferation (MTT assay, absorbance at 570 nm)",[1]; peptide concentrations up to 250 μM,not inhibited
same,"absorbance at 570 nm (MTT assay), influence on cell proliferation",[1]; peptide 0 μM to 100 μM,no particular change in the absorbance at 570 nm
same,"cell proliferation (MTT assay, absorbance at 570 nm)",[2],not inhibited
same,"cell proliferation (MTT assay, absorbance at 570 nm)",[3],not inhibited
same,viable cell counts,[4],the same as those in an untreated case
same,"absorbance at 570 nm (MTT assay), influence on cell proliferation",[5],no particular change in the absorbance at 570 nm
same,"absorbance at 570 nm (MTT assay), influence on cell proliferation",[6],no particular change in the absorbance at 570 nm
same,viable cell counts,[7],the same as those in an untreated case
same,"absorbance at 570 nm (MTT assay), influence on cell proliferation",[8],no particular change in the absorbance at 570 nm
same,"absorbance at 570 nm (MTT assay), influence on cell proliferation",[9],no particular change in the absorbance at 570 nm
same,"cell proliferation (MTT assay, absorbance at 570 nm)",[10],not inhibited
same,"cell proliferation (MTT assay, absorbance at 570 nm)",[11],not inhibited
same,viable cell counts,[12],the same as those in an untreated case
